The record followed here is patent US20260285853A1, “COMPOUNDS AND METHODS FOR MODULATING SPLICING” (REMIX THERAPEUTICS INC., priority 2023, published 2026).

Holding throughout (format): cell-based
Test [1] has as its system HTT mRNA. Description: Splicing RT-qPCR assay (THP), Table 2A. The settings on record: Table 2A (THP); for AC50: AJ mRNA increase, read-out: HTT AJ (increase in alternative junction mRNA, AC50); for IC50: CJ mRNA decrease, read-out: HTT CJ (decrease in canonical junction mRNA, IC50). For orientation: Quantitative PCR measures a nucleic acid by following its amplification.

Test [2] deals with MYB mRNA. Kind of test: Splicing RT-qPCR assay (THP), Table 2A. Particulars: Table 2A (THP); for AC50: AJ mRNA increase, read-out: MYB AJ (increase in alternative junction mRNA, AC50); for IC50: CJ mRNA decrease, read-out: MYB CJ (decrease in canonical junction mRNA, IC50).
The test system of test [3] is HTT mRNA. Description: Gene panel canonical junction qPCR assay, decrease in CJ mRNA, Table 3. Particulars: decrease in canonical junction (CJ) mRNA, gene panel qPCR, Table 3. The method, boiled down:
(§1)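 A673 cells were plated, left to adhere for 24 h, then dosed; K562 cells were plated in 96- or 384-well format and dosed directly. Both were incubated 24 h at 37 °C with an 11-point 3-fold series (top 10 uM final). Canonical junction mRNA was then read by cDNA synthesis and qPCR.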

For test [4], the system named is MYB mRNA. The description is as above. The settings on record: decrease in canonical junction (CJ) mRNA, gene panel qPCR, Table 3. The method, boiled down:
as §1

The test system of test [5] is SH-SY5Y (human neuroblastoma) cells. Kind of test: Cell viability, Cell Titer Glo 2.0 assay. Particulars: read-out: Viability SHSY5Y.3 GI50. The method, boiled down:
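SH-SY5Y neuroblastoma cells are exposed to test compounds for 72 hours at 37 °C and 5% CO2, with final DMSO held at 0.1%. Cell viability is then measured with the CellTiter-Glo 2.0 assay.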

As a reminder, the AC50 is the concentration giving half of the maximal activity seen. Broadly, the IC50 is the concentration needed to halve the response being measured. The term GI50 denotes the concentration giving 50% growth inhibition. For `CCNC1CCN(c2ccc(C(=O)Nc3nc4c(C)nc(C)cc4[nH]3)c3nn(C)cc23)CC1` [Compound 572, N-(4,6-dimethyl-1H-imidazo[4,5-c]-pyridin-2-yl)-4-[4-(ethylamino)-1-piperidyl]-2-methyl-indazole-7-carboxamide], the AC50 was more than 10 µM in test [1] and 1 to 10 µM in test [2]. For the same compound, the IC50 in test [1], in test [2], in test [3] and in test [4] was 1 to 10 µM in each case. In test [5], the GI50 was in the range of 1000 to 10000 nM.
`COc1cn2nc(C)nc2cc1NC(=O)c1ccc(N2CCC(NC3CC3)CC2)c2cn(C)nc12` [Compound 573, 4-[4-(cyclopropylamino)-1-piperidyl]-N-(6-methoxy-2-methyl-[1,2,4]triazolo-[1,5-a]-pyridin-7-yl)-2-methyl-indazole-7-carboxamide]: the AC50 in test [1] and in test [2] was more than 10 µM each time. Besides, the IC50 in test [1], in test [2], in test [3] and in test [4] was more than 10 µM each time. In test [5], the GI50 was more than 10000 nM.
Take `COc1cc2nccn2cc1NC(=O)c1ccc(N2CCC(NC3CC3)CC2)c2cn(C)nc12` [Compound 574, 4-[4-(cyclopropylamino)-1-piperidyl]-N-(7-methoxy-imidazo[1,2-a]pyridin-6-yl)-2-methylindazole-7-carboxamide]: the AC50 in test [1] and in test [2] was more than 10 µM in each case. Also, the IC50 in test [1], in test [2], in test [3] and in test [4] was more than 10 µM throughout. Also, the GI50 in test [5] lay in the range of 1000 to 10000 nM.
As to `Cc1cn2cc(NC(=O)c3ccc(N4CCC(NCC5CC5)CC4)c4cn(C)nc34)nc2c(C)n1` [Compound 575], the AC50 in test [1] is more than 10 µM; in test [2], 0.1 to 1 µM. The IC50 in test [1] was more than 10 µM; in test [2] it was 1 to 10 µM; in test [3], more than 10 µM; in test [4] it was 1 to 10 µM. For the same compound, the GI50 in test [5] fell in the range of 1000 to 10000 nM.
Turning to `CCNC1CC2(C1)CN(c1ccc(C(=O)Nc3cn4cc(C)nc(C)c4n3)c3nn(C)cc13)C2` [Compound 576], the AC50 in test [1] and in test [2] was more than 10 µM each time. The IC50 in test [1], in test [2], in test [3] and in test [4] was more than 10 µM throughout. In test [5], the GI50 was in the range of 1000 to 10000 nM.
`COc1cc2nn(C)cc2cc1NC(=O)c1ccc(N2CCC(NCC3CC3)CC2)c2cn(C)nc12` [Compound 577]: the AC50 in test [1] was 1 to 10 µM; in test [2], less than 0.1 µM. For the same compound, the IC50 was 1 to 10 µM in test [1], 0.1 to 1 µM in test [2], 1 to 10 µM in test [3] and 0.1 to 1 µM in test [4]. Besides, the GI50 in test [5] lay within 1000 to 10000 nM.
`CCNC1CC2(C1)CN(c1ccc(C(=O)Nc3cc4cn(C)nc4cc3OC)c3nn(C)cc13)C2` [Compound 578]: the AC50 in test [1] and in test [2] was 0.1 to 1 µM throughout. Besides, the IC50 in test [1], in test [2], in test [3] and in test [4] was 0.1 to 1 µM throughout. Also, in test [5], the GI50 was 100 to 1000 nM.
Regarding `Cc1cn2cc(NC(=O)c3ccc(N4CCC(NC5CC5)CC4)c4cn(C)nc34)nc2c(-c2cnn[nH]2)n1` [Compound 579, 4-(4-(cyclopropylamino)piper-idin-1-yl)-2-methyl-N-(6-methyl-8-(1H-1,2,3-triazol-5-yl)-imidazo[1,2-a]pyrazin-2-yl)-2H-indazole-7-carbox-amide 2,2,2-trifluoroacetate], the AC50 in test [1] and in test [2] was more than 10 µM in each case. Further, the IC50 in test [1], in test [2], in test [3] and in test [4] was more than 10 µM in each case. Besides, in test [5], the GI50 is more than 10000 nM.
`Cc1cn2cc(NC(=O)c3ccc(N4CCC(N)CC4)c4cn(C)nc34)c(F)c2c(C)n1` [Compound 580, 4-(4-amino-1-piperidyl)-N-(8-fluoro-1,3-dimethyl-pyrrolo[1,2-a]-pyrazin-7-yl)-2-methyl-indazole-7-carboxamide]: the AC50 was more than 10 µM in test [1] and 1 to 10 µM in test [2]. Moreover, the IC50 in test [1] was more than 10 µM; in test [2], 1 to 10 µM; in test [3] it was more than 10 µM; in test [4], 1 to 10 µM. Also, the GI50 in test [5] lay in the range of 100 to 1000 nM.
On to `CNC1CCN(c2ccc(C(=O)Nc3cn4cc(C)nc(C)c4c3F)c3nn(C)cc23)CC1` [Compound 581, N-(8-fluoro-1,3-dimethyl-pyrrolo[1,2-a]-pyrazin-7-yl)-2-methyl-4-[4-(methylamino)-1-piperidyl]indazole-7-carboxamide], for which the AC50 in test [1] is more than 10 µM; in test [2], 1 to 10 µM. Also, the IC50 in test [1] was more than 10 µM; in test [2], 1 to 10 µM; in test [3] it was more than 10 µM; in test [4] it was 1 to 10 µM. Moreover, the GI50 in test [5] lay in the range of 1000 to 10000 nM.
Regarding `Cc1cc2[nH]c(NC(=O)c3ccc(N4CCC(NC5CC5)CC4)c4cn(C)nc34)nc2c(C)n1` [Compound 582, 4-[4-(cyclopropylamino)-1-piperidyl]-N-(4,6-dimethyl-1H-imidazo[4,5-c]pyridin-2-yl)-2-methyl-indazole-7-carboxamide], the AC50 in test [1] and in test [2] was more than 10 µM in each case. Also, the IC50 in test [1], in test [2], in test [3] and in test [4] was more than 10 µM each time. Besides, the GI50 in test [5] fell in the range of 1000 to 10000 nM.
On to `CCNC1CCN(c2ccc(C(=O)Nc3nc4c(C)nc(C)cc4n3C)c3nn(C)cc23)CC1` [Compound 583, 4-[4-(ethylamino)-1-piperidyl]-2-methyl-N-(1,4,6-trimethyl-imidazo[4,5-c]pyridin-2-y1)-indazole-7-carboxamide], for which the AC50 in test [1] was 1 to 10 µM; in test [2], more than 10 µM. For the same compound, the IC50 was 1 to 10 µM in test [1], more than 10 µM in test [2], 1 to 10 µM in test [3] and more than 10 µM in test [4]. For the same compound, the GI50 in test [5] is more than 10000 nM.
As to `C[C@H]1CN(c2ccc(C(=O)Nc3cc(F)c4nn(C)cc4c3)c3nn(C)cc23)C[C@H](C)N1` [Compound 584, 4-[(3S, 5S)-3,5-dimethylpiperazin-1-yl]-N-(7-fluoro-2-methyl-indazol-5-yl)-2-methyl-indazole-7-carboxamide], the AC50 in test [1] is 1 to 10 µM; in test [2], less than 0.1 µM. Further, the IC50 in test [1] was 1 to 10 µM; in test [2] it was less than 0.1 µM; in test [3] it was 1 to 10 µM; in test [4] it was less than 0.1 µM. Besides, the GI50 in test [5] lay within 100 to 1000 nM.
As for `Cc1cn2cc(NC(=O)c3ccc(N4C[C@H](C)N[C@@H](C)C4)c4cn(C)nc34)cc(F)c2n1` [Compound 588, 4-[(3S, 5S)-3,5-dimethylpiperazin-1-yl]-N-(8-fluoro-2-methyl-imidazo[1,2-a]pyridin-6-yl)-2-methyl-indazole-7-carboxamide], the AC50 in test [1] was 1 to 10 µM; in test [2], less than 0.1 µM. The IC50 is 1 to 10 µM in test [1], less than 0.1 µM in test [2], 1 to 10 µM in test [3] and less than 0.1 µM in test [4]. Further, in test [5], the GI50 was 100 to 1000 nM.
In the case of `CNC1CCC(Oc2ccc(C(=O)Nc3cn4cc(C)nc(C)c4n3)c3nn(C)cc23)CC1` (stereo not shown) [Compound 592], the AC50 in test [1] and in test [2] was 1 to 10 µM each time. Further, the IC50 in test [1], in test [2], in test [3] and in test [4] was 1 to 10 µM throughout. For the same compound, in test [5], the GI50 lay within 1000 to 10000 nM.
`CNC1CCCC(Oc2ccc(C(=O)Nc3cn4cc(C)nc(C)c4n3)c3nn(C)cc23)C1` (stereo not shown) [Compound 593]: the AC50 in test [1] and in test [2] was more than 10 µM throughout. For the same compound, the IC50 in test [1], in test [2], in test [3] and in test [4] was more than 10 µM throughout. Further, the GI50 in test [5] is more than 10000 nM.
As for `CNC1CCC(Oc2ccc(C(=O)Nc3cn4cc(C)nc(C)c4n3)c3nn(C)cc23)C1` (stereo not shown) [Compound 594], the AC50 in test [1] and in test [2] was more than 10 µM in each case. Moreover, the IC50 in test [1], in test [2], in test [3] and in test [4] was more than 10 µM throughout. For the same compound, in test [5], the GI50 was more than 10000 nM.
Turning to `CNC1CCC(Oc2ccc(C(=O)Nc3cc4cn(C)nc4cc3OC)c3nn(C)cc23)CC1` (stereo not shown) [Compound 595], the AC50 in test [1] and in test [2] was more than 10 µM in each case. The IC50 is 1 to 10 µM in test [1], more than 10 µM in test [2], 1 to 10 µM in test [3] and more than 10 µM in test [4]. Further, the GI50 in test [5] was 1000 to 10000 nM.
For `CNC1CCCC(Oc2ccc(C(=O)Nc3cc4cn(C)nc4cc3OC)c3nn(C)cc23)C1` (stereo not shown) [Compound 596], the AC50 in test [1] and in test [2] was 1 to 10 µM each time. Moreover, the IC50 in test [1], in test [2], in test [3] and in test [4] was 1 to 10 µM throughout. In addition, the GI50 in test [5] lay in the range of 1000 to 10000 nM.
